This is an account of results in US10752584B2 (EMORY UNIVERSITY, priority 2016, dated 2020).

The subject of one series is wild type HBV. Put plainly: Anti-HBV assay in AD-38 cell line. It counts as cell-based. Conditions: Hepatitis B virus, AD-38 cells, HBV in culture supernatant.
Another series deals with HepG2 cells. Put plainly: Lactic acid production in HepG2 cells. It counts as cell-based. Particulars: 14-day assay. The method, then:
To measure the effects of the compounds on lactic acid production, HepG2 cells from a stock culture were diluted and plated in 12-well culture plates at 2.5×10^4 cells per well. Various concentrations (0 μM, 0.1 μM, 1 μM, 10 μM and 100 μM) of compound were added, and the cultures were incubated at 37° C. in a humidified 5% CO2 atmosphere for 4 days. At day 4, the number of cells in each well was determined and the culture medium collected. The culture medium was then filtered, and the lactic acid content in the medium was determined using a colorimetric lactic acid assay (Sigma-Aldrich). Since lactic acid product can be considered a marker for impaired mitochondrial function, elevated levels of lactic acid production detected in cells grown in the presence of test compounds would indicate a drug-induced cytotoxic effect.
The effect of compounds 7 and 9 on the levels of mitochondrial and nuclear DNA, and lactic acid production was evaluated in HepG2 cells (14-day assay), and the data is tabulated below in Table 2: […]

pEC50: −log10 of the molar value.

Consider `C#CCNC(=O)C(=O)c1c(C)c(C(=O)Nc2ccc(F)c(F)c2)n(C)c1C` [Compound 7a, 4-[(Propargylamino)(oxo)acetyl]-N-(3,4-difluorophenyl)-1,3,5-trimethyl-1H-pyrrole-2-carboxamide], for which the pEC50 with wild type HBV (read-out: Anti-HBV activity EC50) is 8.05 to 9.00. The EC90 in the series with wild type HBV (read-out: Anti-HBV activity EC90) was 10 to 90 nM. Also, the “Lactic acid production (% of control)” value in the series on HepG2 cells (10 μM) was 103 ± 32.0 % of control; with HepG2 cells (25 μM), 106 ± 19.5 % of control; with HepG2 cells (50 μM), 193 ± 12.6 % of control.

What is called pEC50 is the EC50 on a negative log10 scale, so that one unit is a factor of ten. In general, EC90 refers to the point of the concentration-response curve where the effect stands at 90%.
